Eight compounds from US20160187321A1, “INDUCED EXPRESSION OF PROTEINS IN INSECT CELLS” (UNIVERSITY OF FLORIDA RESEARCH FOUNDATION, INC., priority 2013, published 2016) can be followed below.

The test system of experiment [1] is Kv2 delayed-rectifier potassium channels (AgKv2). Description: Whole cell patch clamp of potassium channel currents in Sua1B cells. The format is cell-based, Anopheles gambiae. An excerpt:
(§1) Cell Culture. […] Cells were passed every 3-5 days.
(§2) Differentiation with 20-Hydroxyecdysone. […] Controls had 0.1% DMSO.

The test system of a further experiment is potassium channels. Description: Thallium flux (FluxOR) fluorescence assay of potassium channel function in Sua1B cells. The format is cell-based, Anopheles gambiae. On the procedure:
as §2
Thallium Flux Measurements of Potassium Channel Pharmacology. The FluxOR™ potassium channel assay (Molecular Probes, Inc., Eugene, Oreg., USA) was performed as outlined in the product information sheet and performed on the SyntaxMax plate reader (BioTek, Winooski, Vt., USA).

A further experiment deals with AgKv2 K+ channels. The experiment is described as follows: Whole cell patch clamp of AgKv2 K+ channels expressed in HEK293 cells. The format is cell-based, Anopheles gambiae.
The test system of experiment [2] is outward potassium currents similar to Kv2 currents. The experiment is described as follows: Patch clamp of potassium currents in Sf21 cells. It is filed as cell-based, lepidopteran. The settings on record: 3 hours treatment. On the procedure:
(§3) FIGS. 8A-8C. […] Imidacloprid-induced calcium fluorescence is blocked by 100 μM mecamylamine (MML). […] FIG. 8B: Response of a patch clamped Sf21 cell to imidacloprid treatment after 6 hours in 20-HE. […] The current voltage plot was generated by subtracting TEA-insensitive current from total current at each voltage.
A general note: Patch clamp records ionic current or voltage across a cell membrane.

Experiment [3] relates to nicotinic acetylcholine receptors. The experiment is described as follows: Imidacloprid-induced calcium fluorescence in Sf21 cells. The format is cell-based, lepidopteran. On the procedure:
as §3
FIG. 9. […] Expression of IMI-induced fluorescence is the same, with even lower vehicle background with caffeine, at least in this particular experiment.

In experiment [4] the test system is Anopheles gambiae Kv2 (AgKv2) channel (Accession # XM_315955.4) expressed in HEK293 cells. Conditions: read-out: EC50 (TEA inhibition of K+ current); FIG. 6E; HEK293 cells with AgKv2 gene, CMV promoter, tetracycline-induced (w/ TC); whole cell patch clamp, holding potential −80 mV, steps up to +100 mV.
The subject of experiment [5] is Kv2 delayed-rectifier K+ channel (AgKv2), native channel current in Sua1B cells. Conditions: read-out: IC50 (TEA inhibition of K+ current), FIG. 5F, whole cell patch clamp, holding potential −80 mV, steps up to +100 mV, TEA 0.3-30 mM traces, 20-HE added 3 hours before experiments (general method).
Text: as §1
(§4) Differentiation with 20-Hydroxyecdysone.

Another experiment has as its system muscarinic-type receptor. Description: Calcium fluorescence response to muscarinic agonists in Sua1B cells. The format is cell-based, Anopheles gambiae.
Text: as §1, §4

Experiment [6] deals with nicotinic acetylcholine receptors. Description: Patch clamp of Sf21 cell response to imidacloprid. The format is cell-based, lepidopteran. Conditions: Sf21 cell after 6 hours in 20-HE. On the procedure: as §3
Experiment [7] has the same test system. The experiment is described as follows: Imidacloprid-induced calcium fluorescence in Sua1B cells. The format is cell-based, Anopheles gambiae.

Each structure is given as a SMILES string. Entries after “also recorded” stand apart in the source; their conditions may differ. Where two headings read alike, the source gives them in different places.

`Nc1ccncc1` [4-AP, 4-aminopyridine]: the “inhibition of Kv2 (AgKv2) K+ currents” value in [1] (20-HE-treated Sua1B cells) is recorded as “inhibited AgKv2 currents”; in experiment [1] (20-HE-treated Sua1B cells, listed as 4-aminopyridine), “inhibited”. For the same compound, the “effect on thallium ion uptake” value in the experiment on potassium channels (Sua1B cells induced by 20-HE) is “blocking action”. Further, the “inhibition of AgKv2 K+ current” value with AgKv2 K+ channels (HEK293 cells expressing the AgKv2 gene) is recorded as “inhibited”.
On to `CC(C)(O)CC[C@@H](O)[C@](C)(O)[C@H]1CC[C@@]2(O)C3=CC(=O)[C@@H]4C[C@@H](O)[C@@H](O)C[C@]4(C)[C@H]3CC[C@]12C` [20-HE, 20-hydroxyecdysone], for which the “expression of potassium currents” value in [2] was “expressing outward potassium currents”. Besides, in experiment [1] (20-HE treatment of Sua1B cells), the “Maximal increase of AgKv2 channel expression (current)” value is 2000 pA. Also, the “time after treatment at which Kv2 delayed-rectifier potassium channels are expressed” value in experiment [1] (Sua1B cells, whole cell patch clamp) is at most 3 h. Besides, the “K+ channel expression (thallium fluorescence)” value with potassium channels (Sua1B cells, 42 μM 20-HE, time dependence) was “detectable ion channel expression in hours”. Besides, the “expression of nicotinic acetylcholine receptors” value in [3] (Sf21 cells, 6 hours of exposure) was “enhances expression”.
In the case of `CC[N+](CC)(CC)CC` [TEA, tetraethylammonium], the EC50 in [4] was determined as 1300 µM. Besides, the “inhibition of Kv2 (AgKv2) K+ currents” value in experiment [1] is reported as “inhibited AgKv2 currents; also recorded: Inhibition of K^+ current”. For the same compound, the “inhibition of AgKv2 K+ current” value with AgKv2 K+ channels was “inhibited; also recorded: Inhibition of potassium current”. Moreover, the IC50 in experiment [5] turned out to be 8000 µM.
In the case of `CC(C[N+](C)(C)C)OC(N)=O` (centres unmarked) [bethanechol], in the experiment with muscarinic-type receptor, the “fold less potent response in the absence of insect hormone” value was around 200 fold. Further, the EC50 in the experiment with muscarinic-type receptor (read-out: EC50 (concentration where the response is half maximal), calcium fluorescence) is 0.25 µM; with muscarinic-type receptor (read-out: EC50, calcium fluorescence) it was 48 µM.
Regarding `Cn1c(=O)c2c(ncn2C)n(C)c1=O` [caffeine], the “expression of imidacloprid sensitivity (IMI-induced fluorescence)” value in experiment [3] (Sf21 cells, 6 hours exposure, 10 μM imidacloprid) was “approximately the same effect as caffeine and 20-HE”.
On to `O=[N+]([O-])NC1=NCCN1Cc1ccc(Cl)nc1` [imidacloprid], for which the “calcium fluorescence compared to matched controls” value in [3] (10 μM, Sf21 cells, 6 hours of exposure to 20-HE) is “greater imidacloprid-induced calcium fluorescence”. Besides, the calcium fluorescence result in experiment [3] (Sf21 cells without 20-HE) is listed as “reduced effect”. Further, the “current response of patch clamped cell” value in experiment [6] is listed as “inward current”. Further, the “calcium fluorescence versus controls” value in experiment [7] (Sua1B cells in the absence of 20-HE) was “no imidacloprid effect”; in [7] (Sua1B cells, 3 hours of 20-HE treatment), “increases calcium fluorescence above controls”.
Turning to `CNC1(C)C2CCC(C2)C1(C)C` (centres unmarked) [mecamylamine], the “block of imidacloprid-induced calcium fluorescence” value in experiment [3] (100 μM, Sf21 cells, 6 hours 20-HE) is listed as “blocked”. Besides, in experiment [3] (Sf21 cells without 20-HE), the “reduction of imidacloprid-induced calcium fluorescence” value was “variable and not statistically significant reduction”. Besides, in experiment [7] (100 μM, Sua1B cells, 3 hours of 20-HE treatment), the “block of imidacloprid-increased calcium fluorescence” value is listed as “blocked”.
As for `NC1=N[C@H](O)[C@H]2[C@H]3O[C@]4(O)O[C@@H]([C@@H](O)[C@@]2(N1)[C@@H]4O)[C@]3(O)CO` [tetrodotoxin], in the experiment on potassium channels, the “effect on thallium ion uptake” value was “no effect”.

Broadly, the IC50 is the midpoint of a concentration-inhibition curve.
